Reference: US5081232A, “Complexes of TC99m radiopharmaceuticals” (priority 1987, dated 1992)

Assay: Animal biodistribution (in vivo, i.v. injection)
Settings: rats; for Blood, % injected dose/organ: blood taken as 5.8% of body weight; for Muscle, % injected dose/organ: muscle taken as 43% of body weight
Method: 0.1 ml Tc^99m prep was injected i.v. into a lateral tail vein of 6 anaesthetised rats.
At 2 minutes and 60 minutes post injection, 3 rats were sacrificed by decapitation, bled from the neck and dissected. The following organs were removed at dissection: kidney, bladder(+urine), lung, liver, spleen, stomach, small intestine, large intestine, brain (weighed), heart (weighed), thyroid, and samples of blood (weighed) and muscle (weighed, the residual carcass and the tail (injection site). Subsequently samples were counted in an automatic twin crystal gamma counter.
Percentage biodistribution of injected material was calculated (after correction for background) for all organs using the formula: [formula]
Since only samples of muscle and blood were taken, the percentage in these tissues was calculated assuming blood and muscle to represent 5.8 and 43% of total animal weight respectively using the formula: [formula] where CF= 0.058 for blood

SMILES	Brain, % injected dose/organ (2 min p.i.) [% injected dose/organ]	Heart, % injected dose/organ (2 min p.i.) [% injected dose/organ]	Heart/Blood Counts/Gram ratio (2 min p.i.)	Heart/Liver Counts/Gram ratio (2 min p.i.)	Heart/Lung Counts/Gram ratio (2 min p.i.)	Heart/Muscle Counts/Gram ratio (2 min p.i.)	Kidney + Urine, % injected dose/organ (2 min p.i.) [% injected dose/organ]	Liver, % injected dose/organ (2 min p.i.) [% injected dose/organ]	Lung, % injected dose/organ (2 min p.i.) [% injected dose/organ]	Blood, % injected dose/organ (2 min p.i.) [% injected dose/organ]	Muscle, % injected dose/organ (2 min p.i.) [% injected dose/organ]	Brain, % injected dose/organ (60 min p.i.) [% injected dose/organ]	Heart, % injected dose/organ (60 min p.i.) [% injected dose/organ]	Heart/Blood Counts/Gram ratio (60 min p.i.)	Heart/Liver Counts/Gram ratio (60 min p.i.)	Heart/Lung Counts/Gram ratio (60 min p.i.)	Kidney + Urine, % injected dose/organ (60 min p.i.) [% injected dose/organ]	Liver, % injected dose/organ (60 min p.i.) [% injected dose/organ]	Lung, % injected dose/organ (60 min p.i.) [% injected dose/organ]	Muscle, % injected dose/organ (60 min p.i.) [% injected dose/organ]	also measured
CP(C)CCP(C)C.CP(C)CCP(C)C.N#[O+].[99Tc+].[Cl-].[Cl-]	0.04	0.46	0.68	0.38	0.71	1.85	10.18	15.03	1.09	9.96	27.00	0.01	0.30	4.48	1.13	1.53	42.60	3.14	0.33	14.10	Liver + GI, % injected dose/organ (2 min p.i.): 26.33 % injected dose/organ; Heart/Muscle Counts/Gram ratio (60 min p.i.): 2.34; Liver + GI, % injected dose/organ (60 min p.i.): 34.70 % injected dose/organ; Blood, % injected dose/organ (60 min p.i.): 1.02 % injected dose/organ
O=[N][99Tc]([Cl])([Cl])[Cl].c1ccc(-c2ccccn2)nc1 [[^99 Tc(NO)Cl3 (Bipy)], bipyridyltrichloronitrosyltechnetium (11)]	0.06	0.32	0.99	1.31	1.30	1.69	11.30	3.43	0.45	7.17	24.17	0.04	0.30	2.12	1.09	4.13	22.96	3.35	0.10	18.95	Liver + GI, % injected dose/organ (2 min p.i.): 0.00 % injected dose/organ; Heart/Muscle Counts/Gram ratio (60 min p.i.): 2.02; Liver + GI, % injected dose/organ (60 min p.i.): 0.00 % injected dose/organ; Blood, % injected dose/organ (60 min p.i.): 2.02 % injected dose/organ
O=[N][99Tc-]([Cl])([Cl])([Cl])[Cl] [[^99m TcNOCl4]^-]	0.09	0.55	0.41	1.37	–	2.14	6.26	5.31	2.09	20.32	30.35	0.05	0.42	0.43	0.98	–	14.61	4.59	1.71	30.41	Liver + GI, % injected dose/organ (2 min p.i.): 13.49 % injected dose/organ; Heart/Muscle Counts/Gram ratio (60 min p.i.): 1.66; Liver + GI, % injected dose/organ (60 min p.i.): 11.89 % injected dose/organ; Blood, % injected dose/organ (60 min p.i.): 14.94 % injected dose/organ
O=[N][99Tc]1([Cl])([Cl])([Cl])[N]2C=CC=c3ccc4c(c32)[N]1C=CC=4 [[^99 Tc(NO)(1,10 phen)Cl3]°]	0.08	0.40	1.59	35.14	1.55	1.99	1.97	0.16	0.67	3.98	22.83	0.04	0.29	1.36	10.63	2.57	16.05	0.46	0.23	17.02	Heart/Muscle Counts/Gram ratio (60 min p.i.): 4.68; Blood, % injected dose/organ (60 min p.i.): 3.49 % injected dose/organ
O=[N][Tc+][Cl].[C-]#[N+]C(C)(C)C.[C-]#[N+]C(C)(C)C.[C-]#[N+]C(C)(C)C.[C-]#[N+]C(C)(C)C [[^99 Tc(NO)Cl(t-BuCN)4]^+]	0.04	1.09	6.19	2.58	3.34	–	6.86	5.82	0.64	0.40	21.45	0.04	1.37	8.98	2.97	26.02	8.15	5.89	0.12	18.30	–
